{"source": "ChEMBL document CHEMBL3352806", "about": "“Cytotoxic bibenzyl dimers from the stems of Dendrobium fimbriatum Hook” (Bioorg Med Chem Lett, 2014)", "assay_type_in_all_cases": "functional, cell-based", "key": {"HL-60": {"tested_on": "HL-60", "assay": "Cytotoxicity against human HL60 cells assessed as reduction in cell number at 40 uM"}, "SMMC-7721 [1]": {"tested_on": "SMMC-7721", "assay": "Cytotoxicity against human SMMC7721 cells assessed as reduction in cell number at 40 uM"}, "A549 [2]": {"tested_on": "A549", "assay": "Cytotoxicity against human A549 cells assessed as reduction in cell number at 40 uM"}, "MCF7 [3]": {"tested_on": "MCF7", "assay": "Cytotoxicity against human MCF7 cells assessed as reduction in cell number at 40 uM"}, "SW480 [4]": {"tested_on": "SW480", "assay": "Cytotoxicity against human SW480 cells assessed as reduction in cell number at 40 uM"}, "[5]": {"assay": "Cytotoxicity against human HL60 cells assessed as reduction in cell number", "details": "HL-60"}, "SMMC-7721 [6]": {"tested_on": "SMMC-7721", "assay": "Cytotoxicity against human SMMC7721 cells assessed as reduction in cell number"}, "A549 [7]": {"tested_on": "A549", "assay": "Cytotoxicity against human A549 cells assessed as reduction in cell number"}, "MCF7 [8]": {"tested_on": "MCF7", "assay": "Cytotoxicity against human MCF7 cells assessed as reduction in cell number"}, "SW480 [9]": {"tested_on": "SW480", "assay": "Cytotoxicity against human SW480 cells assessed as reduction in cell number"}}, "note": "The source made the active and inactive calls. The calls are words filed in the database; no cut-off is given here."}
{"smiles": "COc1cc(CC(OC)c2cc(OC)c(O)c(OC)c2)ccc1O", "note": "(stereo not given)", "values": [{"measurement": "Activity", "setting": "HL-60", "result": "inactive"}, {"measurement": "Activity", "setting": "SMMC-7721 [1]", "result": "inactive"}, {"measurement": "Activity", "setting": "A549 [2]", "result": "inactive"}, {"measurement": "Activity", "setting": "MCF7 [3]", "result": "inactive"}, {"measurement": "Activity", "setting": "SW480 [4]", "result": "inactive"}]}
{"smiles": "COc1cc(CCc2cc(O)cc(OC)c2Cc2c(CCc3ccc(O)c(OC)c3)cc(O)cc2OC)ccc1O", "values": [{"measurement": "IC50", "setting": "[5]", "result": 13.9, "unit": "µM"}, {"measurement": "IC50", "setting": "SMMC-7721 [6]", "result": 16.9, "unit": "µM"}, {"measurement": "IC50", "setting": "A549 [7]", "result": 14.5, "unit": "µM"}, {"measurement": "IC50", "setting": "MCF7 [8]", "result": 5.85, "unit": "µM"}, {"measurement": "IC50", "setting": "SW480 [9]", "result": 18.8, "unit": "µM"}]}
{"smiles": "COc1cc(CCc2cc(O)c(Cc3c(CCc4ccc(O)c(OC)c4)cc(O)cc3OC)c(OC)c2)ccc1O", "values": [{"measurement": "IC50", "setting": "[5]", "result": 15.8, "unit": "µM"}, {"measurement": "IC50", "setting": "SMMC-7721 [6]", "result": 16.6, "unit": "µM"}, {"measurement": "IC50", "setting": "A549 [7]", "result": 15.6, "unit": "µM"}, {"measurement": "IC50", "setting": "MCF7 [8]", "result": 12.1, "unit": "µM"}, {"measurement": "IC50", "setting": "SW480 [9]", "result": 18.2, "unit": "µM"}]}
{"smiles": "COc1cc(CCc2cc(O)cc(O)c2Cc2c(O)cc(O)cc2CCc2ccc(O)c(OC)c2)ccc1O", "values": [{"measurement": "Activity", "setting": "HL-60", "result": "inactive"}, {"measurement": "Activity", "setting": "SMMC-7721 [1]", "result": "inactive"}, {"measurement": "Activity", "setting": "A549 [2]", "result": "inactive"}, {"measurement": "Activity", "setting": "MCF7 [3]", "result": "inactive"}, {"measurement": "Activity", "setting": "SW480 [4]", "result": "inactive"}]}
{"smiles": "COc1cc(CCc2cc(OC)c(O)c(OC)c2)ccc1O", "note": "[MOSCATILIN]", "values": [{"measurement": "IC50", "setting": "[5]", "result": 2.18, "unit": "µM"}, {"measurement": "IC50", "setting": "SMMC-7721 [6]", "result": 4.07, "unit": "µM"}, {"measurement": "IC50", "setting": "A549 [7]", "result": 5.73, "unit": "µM"}, {"measurement": "IC50", "setting": "MCF7 [8]", "result": 6.2, "unit": "µM"}, {"measurement": "IC50", "setting": "SW480 [9]", "result": 6.88, "unit": "µM"}]}
{"smiles": "COc1ccc(CCc2cc(OC)c(O)c(OC)c2)cc1O", "values": [{"measurement": "IC50", "setting": "[5]", "result": 2.95, "unit": "µM"}, {"measurement": "IC50", "setting": "SMMC-7721 [6]", "result": 10.1, "unit": "µM"}, {"measurement": "IC50", "setting": "A549 [7]", "result": 6.6, "unit": "µM"}, {"measurement": "IC50", "setting": "MCF7 [8]", "result": 12.3, "unit": "µM"}, {"measurement": "IC50", "setting": "SW480 [9]", "result": 5.17, "unit": "µM"}]}
{"smiles": "COc1cc(CCc2cc(O)cc(O)c2)ccc1O", "values": [{"measurement": "Activity", "setting": "HL-60", "result": "inactive"}, {"measurement": "Activity", "setting": "SMMC-7721 [1]", "result": "inactive"}, {"measurement": "Activity", "setting": "A549 [2]", "result": "inactive"}, {"measurement": "Activity", "setting": "MCF7 [3]", "result": "inactive"}, {"measurement": "Activity", "setting": "SW480 [4]", "result": "inactive"}]}
{"smiles": "COc1cc(O)c(Cc2c(O)cc(CCc3ccc(O)c(OC)c3)cc2OC)c(CCc2ccc(O)c(OC)c2)c1", "values": [{"measurement": "IC50", "setting": "[5]", "result": 16.1, "unit": "µM"}, {"measurement": "IC50", "setting": "SMMC-7721 [6]", "result": 18.3, "unit": "µM"}, {"measurement": "IC50", "setting": "A549 [7]", "result": 16.3, "unit": "µM"}, {"measurement": "IC50", "setting": "MCF7 [8]", "result": 12.7, "unit": "µM"}, {"measurement": "IC50", "setting": "SW480 [9]", "result": 17.2, "unit": "µM"}]}
{"smiles": "COc1cc(O)cc(CCc2cccc(O)c2)c1", "values": [{"measurement": "Activity", "setting": "HL-60", "result": "inactive"}, {"measurement": "Activity", "setting": "SMMC-7721 [1]", "result": "inactive"}, {"measurement": "Activity", "setting": "A549 [2]", "result": "inactive"}, {"measurement": "Activity", "setting": "MCF7 [3]", "result": "inactive"}, {"measurement": "Activity", "setting": "SW480 [4]", "result": "inactive"}]}
{"smiles": "COc1cc(O)c(Cc2c(O)cc(OC)cc2CCc2ccc(O)c(OC)c2)c(CCc2ccc(O)c(OC)c2)c1", "values": [{"measurement": "IC50", "setting": "[5]", "result": 19.1, "unit": "µM"}, {"measurement": "IC50", "setting": "SMMC-7721 [6]", "result": 17.5, "unit": "µM"}, {"measurement": "IC50", "setting": "A549 [7]", "result": 16.6, "unit": "µM"}, {"measurement": "IC50", "setting": "MCF7 [8]", "result": 13.7, "unit": "µM"}, {"measurement": "IC50", "setting": "SW480 [9]", "result": 18.8, "unit": "µM"}]}
{"smiles": "COc1cc(O)cc(CCc2ccc(O)c(OC)c2)c1", "values": [{"measurement": "Activity", "setting": "HL-60", "result": "inactive"}, {"measurement": "Activity", "setting": "SMMC-7721 [1]", "result": "inactive"}, {"measurement": "Activity", "setting": "A549 [2]", "result": "inactive"}, {"measurement": "Activity", "setting": "MCF7 [3]", "result": "inactive"}, {"measurement": "Activity", "setting": "SW480 [4]", "result": "inactive"}]}
{"smiles": "COc1cc(O)c(Cc2c(CCc3ccc(O)c(OC)c3)cc(O)cc2OC)c(CCc2ccc(O)c(OC)c2)c1", "values": [{"measurement": "IC50", "setting": "[5]", "result": 16.8, "unit": "µM"}, {"measurement": "IC50", "setting": "SMMC-7721 [6]", "result": 18.9, "unit": "µM"}, {"measurement": "IC50", "setting": "A549 [7]", "result": 16.5, "unit": "µM"}, {"measurement": "IC50", "setting": "MCF7 [8]", "result": 7.75, "unit": "µM"}, {"measurement": "IC50", "setting": "SW480 [9]", "result": 21.2, "unit": "µM"}]}
{"smiles": "Oc1cc(O)c2c(c1)C[C@H](O)c1cccc(O)c1-2", "values": [{"measurement": "Activity", "setting": "HL-60", "result": "inactive"}, {"measurement": "Activity", "setting": "SMMC-7721 [1]", "result": "inactive"}, {"measurement": "Activity", "setting": "A549 [2]", "result": "inactive"}, {"measurement": "Activity", "setting": "MCF7 [3]", "result": "inactive"}, {"measurement": "Activity", "setting": "SW480 [4]", "result": "inactive"}]}
{"smiles": "COc1cc(CCc2cc(O)c(OC)c(OC)c2)ccc1O", "values": [{"measurement": "IC50", "setting": "[5]", "result": 24.3, "unit": "µM"}, {"measurement": "IC50", "setting": "SMMC-7721 [6]", "result": "> 40", "unit": "µM"}, {"measurement": "IC50", "setting": "A549 [7]", "result": "> 40", "unit": "µM"}, {"measurement": "IC50", "setting": "MCF7 [8]", "result": 37.1, "unit": "µM"}, {"measurement": "IC50", "setting": "SW480 [9]", "result": "> 40", "unit": "µM"}]}
{"smiles": "COc1cc(CCc2cc(O)c(Cc3c(CCc4cccc(O)c4)cc(O)cc3OC)c(OC)c2)ccc1O", "values": [{"measurement": "IC50", "setting": "[5]", "result": 22.3, "unit": "µM"}, {"measurement": "IC50", "setting": "SMMC-7721 [6]", "result": "> 40", "unit": "µM"}, {"measurement": "IC50", "setting": "A549 [7]", "result": "> 40", "unit": "µM"}, {"measurement": "IC50", "setting": "MCF7 [8]", "result": 24.8, "unit": "µM"}, {"measurement": "IC50", "setting": "SW480 [9]", "result": "> 40", "unit": "µM"}]}
